From ChEMBL document CHEMBL2331116, “Microbial transformation of acetyl-11-keto-β-boswellic acid and their inhibitory activity on LPS-induced NO production” (Bioorg Med Chem Lett, 2013)

How the values were obtained:
RAW264.7 = assay: Antiinflammatory activity in mouse RAW264.7 cells assessed as inhibition of LPS-induced NO production after 24 hrs; format: functional, cell-based; settings: RAW264.7, 24 h
[1] = Cytotoxicity against mouse RAW264.7 cells assessed as cell viability at 100 uM after 24 hrs by MTT assay relative to control; format: cell-based; settings: read-out: Activity

Row | Compound | IC50 (RAW264.7) [µM] | viability at 24 h, 100 µM [1] [%]
1 | CN(C)c1ccc(O)c2c1C[C@H]1C[C@H]3[C@H](N(C)C)C(O)=C(C(N)=O)C(=O)[C@@]3(O)C(O)=C1C2=O [MINOCYCLINE] |  | 100
2 | CC(=O)O[C@@H]1CC[C@@]2(C)[C@@H](CC[C@]3(C)[C@@H]2C(=O)C=C2[C@@H]4[C@@H](C)[C@H](C)[C@@H](O)C[C@]4(C)C[C@H](O)[C@]23C)[C@@]1(C)C(=O)O | > 100 | 134
3 | CC(=O)O[C@@H]1CC[C@@]2(C)[C@@H](C[C@H](O)[C@]3(C)[C@@H]2C(=O)C=C2[C@@H]4[C@@H](C)[C@H](C)[C@@H](O)C[C@]4(C)C[C@H](O)[C@]23C)[C@@]1(C)C(=O)O | > 100 | 103
4 | CC(=O)O[C@@H]1CC[C@@]2(C)[C@@H](C[C@H](O)[C@]3(C)[C@@H]2C(=O)C=C2[C@@H]4[C@@H](C)[C@H](C)[C@@H](O)C[C@]4(C)CC[C@]23C)[C@@]1(C)C(=O)O | 87.7 | 104
5 | CC(=O)O[C@@H]1CC[C@@]2(C)[C@@H](C[C@H](O)[C@]3(C)[C@@H]2C(=O)C=C2[C@@H]4[C@@H](C)[C@H](C)CC[C@]4(C)C[C@H](O)[C@]23C)[C@@]1(C)C(=O)O | > 100 | 108

Continued, in another order:

Row | IC50 (RAW264.7) [µM] | Compound | viability at 24 h, 100 µM [1] [%]
6 | 10.6 | CC(=O)O[C@@H]1CC[C@@]2(C)[C@@H](C[C@H](O)[C@]3(C)[C@@H]2C(=O)C=C2[C@@H]4[C@@H](C)[C@H](C)CC[C@]4(C)[C@H](O)C[C@]23C)[C@@]1(C)C(=O)O | 98.1
7 | 76.8 | CC(=O)O[C@@H]1CC[C@@]2(C)[C@@H](C[C@H](O)[C@]3(C)[C@@H]2C(=O)C=C2[C@@H]4[C@@H](C)[C@H](C)C[C@H](O)[C@]4(C)CC[C@]23C)[C@@]1(C)C(=O)O | 89.8
8 | 1.5 | CC(=O)O[C@@H]1CC[C@@]2(C)[C@@H](C[C@H](O)[C@]3(C)[C@@H]2C(=O)C=C2[C@@H]4[C@@H](C)[C@H](C)CC[C@]4(C)CC[C@]23C)[C@@]1(C)C(=O)O | 84.2
9 | 15.6 | CC(=O)O[C@@H]1CC[C@@]2(C)[C@@H](CC[C@]3(C)[C@@H]2C(=O)C=C2[C@@H]4[C@@H](C)[C@H](C)CC[C@]4(C)CC[C@]23C)[C@@]1(C)C(=O)O [AKBA] | 81.2
